Experimental findings from patent EP0200406A2, “Novel amino acid derivatives” (Kissei Pharmaceutical Co Ltd, priority 1985, dated 1986) are described below.

The target in test [1] is T1, renin (Homo sapiens, UniProt P00797).
T1 sequence (P00797 67-406): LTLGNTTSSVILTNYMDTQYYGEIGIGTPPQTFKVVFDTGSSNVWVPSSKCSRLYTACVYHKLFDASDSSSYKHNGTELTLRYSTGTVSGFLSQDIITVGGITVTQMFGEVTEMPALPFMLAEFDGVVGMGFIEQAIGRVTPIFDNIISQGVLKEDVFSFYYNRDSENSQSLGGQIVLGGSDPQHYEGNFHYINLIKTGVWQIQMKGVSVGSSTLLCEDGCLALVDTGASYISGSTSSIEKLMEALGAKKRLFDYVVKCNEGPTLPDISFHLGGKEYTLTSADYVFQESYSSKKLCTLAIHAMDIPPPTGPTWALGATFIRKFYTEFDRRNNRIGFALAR
The test is described as follows: Human renin-sheep renin substrate reaction system in vitro. The format is biochemical. The settings on record: purified human renin, semipurified sheep renin substrate, pH 7.4, 15 minutes at 37°C, angiotensin I by radioimmunoassay; read-out: IC50 molar concentration. On the procedure:
To a mixture containing 200 µl of a 125 mM pyrophosphate buffer (pH 7.4), 25 µl of a 20 mM aqueous solution of L-phenylalanyl-L-alanyl-L-prolin as an angiotensin cnverting enzyme inhibitor, 50 µ01 of semipurified sheep renin substrate (2000 ng angiotensin I/ml), 50 µl of dimethyl sulfoxide solution of an amino acid compound of the present invention and 150 µl of deionized water was added 25 µl of purified human renin (20-30 ng angiotensin I/ml/hr. The mixture was incubated for 15 minutes on a water bath at 37°C, and the reaction mixture was allowed to stand for 5 minutes on a water bath at 100°C to stop the reaction. After cooling, 200 µl of the solution were taken up and the amount of angiotensin I produced by the addition of renin was determined by radiommunoassay. The inhibitory effect was calculated by the following equation.
As a control, the same procedure as above was carried out by using 50 µl of dimethyl sulfoxide alone in place of the 50 µl of dimethyl sulfoxide solution containing an amino acid compound of the present invention.

The target in test [2] is T1, renin. The test is described as follows: Renin inhibitory effect in a human high renin plasma. The format is biochemical. Also noted: from tissue; host or cells: human high renin plasma. The settings on record: pH 7, 60 minutes at 37°C, angiotensin I by radioimmunoassay, read-out: IC50 (molar concentration). On the procedure: A mixture of 350 µl of a 0.5 M phosphate buffer containing 14 mM EDTA 2Na and a 0.3% neomycin sulfate, which was adjusted to the pH of 7, 50 µl of a 20 mM an aqueous solution of L-phenylalanyl-L-alanyl-L-prolin as an angiotensin converting enzyme inhibitor and 100 µl of dimethyl sulfoxide solution containing an amino acid compound of the present invention was added to 500 µl of human high renin plasma, and 200 µl of the mixture was incubated at 4°C in an ice bath, and remaining mixture (800 µl) was incubated for 60 minutes at 37°C in a water bath. A 200 µl sample was withdrawn from the incubated mixture, chilled immediately in an ice bath, and the amount (A) of angiotensin I produced was determined by radioimmunoassay.
Also, the amount (B) of angiotensin I produced in the incubated mixture at 4°C in an ice bath was determined by radioimmunoassy.
As a control, the same procedure as above was carried out by using 100 µl of dimethyl sulfoxide alone in place of the 100µl of dimethyl sulfoxide solution containing an amino acid compound of the present invention.
The renin inhibitory effect in human plasa was calculated by taking the amount of angiotensin I - (A) from the amount of angiotensin I (B). The inhibotory effect was calculated by the following equation. [formula]

A further test deals with common marmoset. Kind of test: Hypotensive effect in marmoset. In kind it is in vivo. The note with it: orally 30 mg/kg, conscious male marmosets in high renin state (furosemide), Control 103.5. The protocol:
The experiment was carrried out by using common marmoset as described in K.G. Hofbauer et al., Clinical and Experimental hypertension, Vol. A5, Nos. 7 & 8 (1983), pages 1237-1247.
Furosemide was orally administered three times to common marmoset at 15 mg per kilogram per day every other day to create a high renin state. Blood pressure of consious marmoset was measured 2 days after the last administration of furosemide.
Three consious male marmosets marmosets weighing 305-345 g were fixed. Mean blood pressure at tail artery was recorded on pretismograph instrument. The amino acid compound, of the present invention isopropyl (2RS. 3S)-3-{N-[2-(1-naphthylmethyl)-3-(morpholinocarbonylpropionyl]-L-histidyl}amino-2-hydroxy-5-methylhexanoate and administered orally at 30 mg/kg by using a catheter. The results obtained are shown below.

`CNC(=O)C(O)[C@H](CC(C)C)NC(=O)[C@H](Cc1c[nH]cn1)NC(=O)C(CC(=O)N1CCOCC1)Cc1cccc2ccccc12` (mixture of isomers) [Example 3, (2RS, 3S)-3-{N-[2-(1-Naphthylmethyl)-3-(morpholinocarbonyl)propionyl]-L-histidyl}amino-2-hydroxy-5-methylhexanoylmethylamide]: the IC50 at renin [1] is 340 nM.
Regarding `CNC(=O)C(O)[C@H](CC(C)C)NC(=O)[C@H](Cc1c[nH]cn1)NC(=O)C(CC(=O)N1CCCCC1)Cc1cccc2ccccc12` (mixture of isomers) [Example 7, (2RS, 3S)-3-{N-[2-(1-Naphthylmethyl)-3-(piperidinocarbonyl)propionyl]-L-histidyl}amino-2-hydroxy-5-methylhexanoylmethylamide], the IC50 on renin [1] was 690 nM; at renin [2], 5200 nM.
For the molecule `CCNC(=O)CC(Cc1cccc2ccccc12)C(=O)N[C@@H](Cc1c[nH]cn1)C(=O)N[C@@H](CC(C)C)C(O)C(=O)OC` (mixture of isomers) [Example 10, Methyl (2RS, 3S)-3-{N-[2-(1-naphthylmethyl)-3-(ethylcarbamoyl)propionyl]-L-histidyl}amino-2-hydroxy-5-methylhexanoate], the IC50 at renin [1] is 630 nM.
With `CC(C)C[C@H](NC(=O)[C@H](Cc1cnc[nH]1)NC(=O)C(CC(=O)N1CCOCC1)Cc1cccc2ccccc12)C(O)C(=O)OC(C)C` (stereo partly drawn) [Example 1], the Mean blood pressure with common marmoset (0.5 hours after administration) is given as 88.7 mmHg; in the test with common marmoset (1 hour after administration), 85.6 mmHg; in the test on common marmoset (2 hours after administration) it was 87.2 mmHg; in the test with common marmoset (3 hours after administration), 89.3 mmHg; in the test on common marmoset (5 hours after administration) it was 92.4 mmHg; with common marmoset (7 hours after administration), 92.3 mmHg. For the same molecule, the Mean blood pressure was 92.8 mmHg in the test with common marmoset (9 hours after administration) and 101.9 mmHg with common marmoset (24 hours after administration).
In the case of `CC(C)C[C@H](NC(=O)[C@H](Cc1c[nH]cn1)NC(=O)C(CC(=O)N1CCCCC1)Cc1cccc2ccccc12)C(O)C(=O)OC(C)C` (stereo partly drawn) [Example 5, lsopropyl (2RS, 3S)-3-{N-[2-(1-Naphthytmethyl)-3-(piperidinocarbonyl)propionyl}-t-hisfidyl)amino-2-hydroxy-5-methylhexanoate], the values for the IC50 at renin [1] and at renin [2] were 28 nM and 88 nM, respectively.
`COC(=O)C(O)[C@H](CC(C)C)NC(=O)[C@H](Cc1c[nH]cn1)NC(=O)C(CC(=O)N1CCCC1)Cc1cccc2ccccc12` (stereo partly drawn) [Example 8, Methyl (2RS, 3S)-3-{N-[2-(1-naphthylmethyl)-3-(pyrroiidinocarbonyl)propionyl]-L-histidyl}amino-2-hydroxy-5-methylhexanoate]: the figures for the IC50 at renin [1] and on renin [2] were 69 nM and 62 nM, respectively.
With `COC(=O)C[C@H](O)[C@H](CC(C)C)NC(=O)[C@H](Cc1c[nH]cn1)NC(=O)C(CC(=O)N1CCOCC1)Cc1cccc2ccccc12` (stereo partly drawn) [Example 11, Methyl N-[2-(1-naphthylmethyl)-3-(morpholinocarbonyl)propionyl]-L-histidyistatinate], the IC50 on renin [1] was 210 nM.
Consider `CC(C)CCNC(=O)C[C@H](O)[C@H](CC(C)C)NC(=O)[C@H](Cc1c[nH]cn1)NC(=O)C(CC(=O)N1CCOCC1)Cc1cccc2ccccc12` (stereo partly drawn) [Example 13, N-[2-(1-Naphthyfmethyl)-3-(morpholinocarbouyl)-propionyl]-L-histidyl-statylisoamylamide], for which the IC50 on renin [1] amounted to 36 nM.
